Assay results from patent US10406383B2, “Apparatus for treatment of dermatological conditions” (CAREWEAR CORP., priority 2004, dated 2019).
Marks after values point to notes of the source that are not given here.

Columns and labels:
[1] = system: HSP72 expression in the epidermis; experiment: Seven-day patch test, HSP72 immunohistochemistry; assay type: in vivo, human; conditions: patch test under occlusion
Text: (§1) The standard four-day patch test assay was extended to a seven-day period to examine the effect of the Topical 1 formulation under occlusion or delivered by ultrasound on the induction of fibrillin expression as a mechanism by which clinical signs of photoageing may be improved.
(§2) Ageing can also be monitored by examination of other molecules within the skin. Previous work has identified alterations in the expression of the enzyme matrix metalloproteinase 1 (MMP-1; essential for extracellular matrix remodelling)^3 and in the nuclear retinoid receptor retinoic acid receptor α (RARα; necessary for modulating the effects of vitamin A and its derivatives)^4. Two molecular chaperones were assessed to identify pathways for eliminating abnormal proteins; these were heat shock protein-72 (HSP72)^5 and the extracellular chaperone, clusterin^6.
(§3) Six healthy but photoaged female volunteers were recruited (age range 52-79 years). […]
(§4) A number of extracellular matrix (ECM) molecules known to be reduced in photoaged skin were assayed by immunohistochemistry to detail the potential effects of the Topical 1 formulation and its method of delivery. […] Also assessed were the number of epidermal keratinocytes expressing MMP-1 and RARα. […]
(§5) For cell-associated staining, the numbers of positive epidermal keratinocytes were assessed per high powered field, and the average score calculated for each site/test area. […]

[2] = system: MMP-1 expression in epidermal keratinocytes; experiment: Seven-day patch test, MMP-1 immunohistochemistry; assay type: in vivo, human; conditions: patch test under occlusion
Text: as §1, §2, §3, §4, §5

[3] = system: RARα expression in epidermal keratinocytes; experiment: Seven-day patch test, RARα immunohistochemistry; assay type: in vivo, human; conditions: patch test under occlusion
Text: as §1, §2, §3, §4, §5

[4] = system: fibrillin-rich microfibrils proximal to the dermal-epidermal junction (DEJ); experiment: Seven-day patch test, fibrillin-1 immunohistochemistry; assay type: in vivo, human; conditions: patch test under occlusion
Text: as §1
Fibrillin is a major constituent of the elastin network in the papillary dermis and plays an important role in securing the epidermis to the underlying dermis. Topical application of all-trans retinoic acid (t-RA) as a positive control ameliorates the clinical signs of photoageing.
as §3, §4
Sections were randomised, blinded and examined on a Nikon OPTIPHOT microscope (Tokyo, Japan). For assessment of ECM components, the degree of immunostaining was assessed on a 5 point semi-quantitative scale where 0=no staining and 4=maximal staining. […] The degree of immunostaining was scored for three high power fields per section, and the average score calculated for each site/test area. […]

[5] = Erythema and skin tolerability observations during the trial; assay type: in vivo, human; conditions: patch test protocol
Protocol: Six healthy but photoaged female volunteers were recruited (age range 52-79 years). Test substances were applied separately under standard 6 mm diameter Finn chambers to the extensor aspect of the forearm: these were Topical 1 formulation (20 μl/chamber), vehicle base (20 μl/chamber) and 0.025% all-trans RA (Retin-A® cream, Janssen-Cilag Ltd., 20 μl/chamber). In addition, a baseline untreated biopsy was taken as a reference point. Formulations were applied to clean skin on days 1 and 4 of the assay. All-trans RA was applied to an untreated site on day 4. On day 8, Finn chambers were removed and 3 mm punch biopsies were obtained under 1% lignocaine anaesthesia from each of the test site. Biopsies were embedded in OCT compound (Tissue-Tek®, Miles, Ind., USA) and snap frozen in liquid nitrogen. Biopsy sites were sutured with 1×4/o ethilon and subjects instructed to return between 7-10 days for suture removal.
Ten healthy but photoaged volunteers were recruited (men: 2; female: 8; age range 40-79 years). Topical 1 formulation was applied to extensor forearms alone and with the aid of an ultrasound device (Duo Son™ unit, Orthosonics, Devon UK). Low frequency (45 kHz, 100 mW/cm^2, continuous) and high frequency (1 MHz, 1 W/cm^2 pulsed average, pulsed 20% cycle) were applied simultaneously for a period of ten minutes, during which time the ultrasound delivery head was moved over the skin. […]

[6] = system: HSP70 mRNA; conditions: rats, aspirin 100 mg/kg intraperitoneally 60 min before 37° C. for 30 min; cited from earlier work
[7] = positive epidermal keratinocytes per high powered field

Compound | effect on expression of epidermal HSP72 ([1]; result in words) | HSP72 staining Mean [1, 7] | effect on MMP-1 expression in epidermal keratinocytes ([2]; result in words) | MMP-1 staining Mean ([2]; positive epidermal keratinocytes per high powered field, p > 0.05) | effect on RARα expression in epidermal keratinocytes ([3]; result in words) | RARα staining Mean [3, 7] | Fibrillin-1 staining Mean ([4]; photoaged forearm, biopsy day 8, 5 point scale 0=no staining, 4=maximal staining, p > 0.05) | volunteers with fibrillin-1 deposition proximal to the DEJ ([4]; six volunteers) | Erythema at the site of application [5] | levels of HSP70 mRNA relative to heat treatment alone [6] [fold]
CC1=C(/C=C/C(C)=C/C=C/C(C)=C/C(=O)O)C(C)(C)CCC1 [All-trans RA, all-trans retinoic acid] | significantly increased the expression of epidermal HSP72 | 77.03** | reduced MMP-1 expression in epidermal keratinocytes, although this did not reach significance | 5.3333 | significantly reduced RARα expression in epidermal keratinocytes | 6.0463 | 1.8241 | 3/6 | marked erythema | 
CC(=O)Oc1ccccc1C(=O)O [aspirin, acetylsalicyclic acid] |  |  |  |  |  |  |  |  |  | 3 to 4
